# Laboratory results from patent US20020055528A1, “Artemisinin analogs having antimalarial, antiproliferative, and antitumor activities and chemoselective methods of making the same” (priority 1999, published 2002).
# “Also recorded” adds a separate entry of the source. Read-outs that look alike come from different tables or passages of the source.
# Tests used:
# [1] = tested on: MDA-MB231/ATCC; assay: NCI 60 cell line screen (SRB), Breast Cancer; type: cell-based; settings: MDA- (first line of MDA-MB231/ATCC)
# [2] = tested on: HS 578T; assay: NCI 60 cell line screen (SRB), Breast Cancer; type: cell-based
# [3] = tested on: OVCAR-3; assay: NCI 60 cell line screen (SRB), Ovarian Cancer; type: cell-based; settings: PG=0
# [4] = tested on: MDA-MB-435; assay: NCI 60 cell line screen (SRB), Breast Cancer; type: cell-based
# [5] = tested on: SNB-19; assay: NCI 60 cell line screen (SRB), CNS Cancer; type: cell-based
# [6] = tested on: A498; assay: NCI 60 cell line screen (SRB), Renal Cancer; type: cell-based
# [7] = tested on: NCI-H322M; assay: NCI 60 cell line screen (SRB), Non-Small Cell Lung Cancer; type: cell-based
# [8] = tested on: SK-OV-3; assay: NCI 60 cell line screen (SRB), Ovarian Cancer; type: cell-based
# [9] = tested on: NCI-H23; assay: NCI 60 cell line screen (SRB), Non-Small Cell Lung Cancer; type: cell-based
# [10] = tested on: UACC-62; assay: NCI 60 cell line screen (SRB), Melanoma; type: cell-based
# [11] = tested on: SN12C; assay: NCI 60 cell line screen (SRB), Renal Cancer; type: cell-based
# [12] = tested on: MCF7; assay: NCI 60 cell line screen (SRB), Breast Cancer; type: cell-based
# [13] = tested on: K-562; assay: NCI 60 cell line screen (SRB), Leukemia; type: cell-based
# [14] = tested on: SW-620; assay: NCI 60 cell line screen (SRB), Colon Cancer; type: cell-based
# [15] = tested on: SK-MEL2; assay: NCI 60 cell line screen (SRB), Melanoma; type: cell-based
# [16] = tested on: SR; assay: NCI 60 cell line screen (SRB), Leukemia; type: cell-based
# [17] = tested on: 60 cell line panel; assay: NCI 60 cell line screen (SRB), whole panel; type: cell-based
# Experimental: (§1) The screening assay is performed on 96-well microtitre plates. Relatively high initial inoculation densities are used, in order to permit measurement of “time-zero” values and to enhance the screen's ability to detect and provide some differentiation between antiproliferative and cytotoxic response parameters. […] The inoculated microtitre plates are pre-incubated for 24 hours at 37θC prior to drug additions. The five drug dilutions tested routinely range from 10^−4 to 10^−8 molar. Higher or lower concentration ranges may be selected on a nonroutine basis if appropriate solubility and/or prior biological information or other screening data so dictate. Duplicate wells are prepared for all concentrations, (concentration is often denoted by placing brackets around a number); “time-zero” and “no drug” controls are also provided for each test. The minimum amount of compound required for a one-time evaluation in the routine screen can be calculated from the knowledge that each test requires a total of approximately 40 ml (0.04 liter) of cell culture medium containing the highest desired drug concentration. Thus, the amount (grams) of sample required (assuming an upper test concentration limit of 10^−4 M) is: molecular weight of compound×[…]. After a 48 hour incubation (37θC) with the test compound, the cells are fixed in situ to the bottoms of the microtitre wells by addition of 50 ul of either 50% trichloroacetic acid (for adherent cell lines) or 80% trichloroacetic acid (for settled cell suspension lines), followed by incubation for 60 minutes at 4θC. The cellular protein in each well is assayed using a sulforhodamine B (SRB) stain procedure. Briefly, after discarding the supernatants, the microtitre plates are washed 5 times with deionized water and air-dried. One hundred microliters of SRB solution (0.4% w/v in 1% acetic acid) is added to each microtitre well and incubated for 10 minutes at room temperature. Unbound SRB is removed by washing 5 times with 1 % acetic acid. The plates are air-dried, the bound stain is solubilized with Tris buffer, and the optical densities read at 515 nm. SRB is a bright pink anionic dye which, in dilute acetic acid, binds electrostatically to the basic amino acids of TCA-fixed cells. Cryopreserved master stocks of all the lines are maintained, and cultures used for screening are replaced from the master stock after no more than twenty passages in the screening laboratory. The cell line panel consists of 60 lines, organized into nine, disease-related subpanels including leukemia, non-small-cell lung cancer, colon, CNS, melanoma, ovarian, renal, prostate and breast cancers.
# (§2) The response parameters G150 and LC50 are interpolated values representing the concentrations at which the percentage growth (PG) is +50 and −50, respectively:
# (§3) GI50 is the concentration for which the PG=+50. At this value the increase from time tzero, in the number or mass of cells in the test well is only 50% as much as the corresponding increase in the control well during this period of the experiment, see Table II. A drug effect of this intensity is interpreted as primary growth inhibition.
# (§4) TGI is the concentration for which PG=0. At this value the number or mass of cells in the well at the end of the experiment equals the number or mass of cells in the well at time tzero, see Table III. A drug effect of this intensity is regarded as cytostasis.
# (§5) LC50 is the concentration for which the PG=−50. At this value, the number or mass of cells in the test well at the end of the experiment is half that at time tzero, see Table IV. This is interpreted as cytotoxicity.
# [18] = tested on: MOLT-4
# Experimental: as §1, §2, §3, §4, §5
# [19] = tested on: NCI/ADR-RES; assay: NCI 60 cell line screen (SRB), Breast Cancer; type: cell-based
smiles,measurement,setting,value
CC1=C(C=Cc2cccc(C=CC3=C(C)C4CCC(C)C5CCC6(C)OOC45C(O3)O6)c2)OC2OC3(C)CCC4C(C)CCC1C24OO3 (stereo not drawn) [VII-f],Log10TGI,[1]; PG=0,−4.70 log10M
same,Log10 GI50 or LC50 (per conditions),[1]; PG=+50,−5.67 log10M
same,Log10 GI50 or LC50 (per conditions),"[1]; Table IV (LC50, PG=−50)",>−4.00 log10M
same,Log10TGI,[2]; PG=0,−4.31 log10M
same,Log10GI50,[2]; PG=+50,−5.94 log10M
same,Log10GI50,"[2]; Table IV (LC50, PG=−50)",>−4.00 log10M
same,Log10TGI,[3],>−4.00 log10M
same,Log10TGI,"[4]; MDA-MB-435, PG=0",>−4.00 log10M
same,Log10GI50,"[4]; MDA-MB−435, PG=+50",−5.86 log10M
same,Log10GI50,"[4]; Table IV (LC50, PG=−50), MDA-MB-435",>−4.00 log10M
same,Log10TGI,[5]; PG=0,>−4.33 log10M
same,Log10GI50 or Log10LC50 (see condition),[5]; PG=+50,−5.85 log10M
same,Log10GI50 or Log10LC50 (see condition),"[5]; Table IV (LC50, PG=−50)",>−4.33 log10M
same,Log10TGI,[6]; PG=0,−4.37 log10M
same,Log10GI50,[6]; PG=+50,−4.79 log10M
same,Log10GI50,"[6]; Table IV (LC50, PG=−50)",>−4.00 log10M
same,Log10TGI,[7]; PG=0,−4.39 log10M
same,Log10GI50,[7]; PG=+50,−6.05 log10M
same,Log10TGI,[8]; PG=0,>−4.00 log10M
same,Log10GI50,[8]; PG=+50,−4.52 log10M
same,Log10GI50,"[8]; Table IV (LC50, PG=−50)",>−4.00 log10M
same,Log10TGI,[9]; PG=0,−4.36 log10M
same,log10 GI50 or LC50 (see conditions),[9]; PG=+50,−5.32 log10M
same,log10 GI50 or LC50 (see conditions),"[9]; Table IV (LC50, PG=−50)",>−4.00 log10M
same,Log10TGI,[10]; PG=0,>−4.00 log10M
same,Log10GI50,[10]; PG=+50,−4.90 log10M
same,Log10GI50,"[10]; Table IV (LC50, PG=−50)",>−4.00 log10M
same,Log10TGI,"[11]; SN12C, PG=0",>−4.00 log10M
same,Log10GI50,"[11]; SNI2C, PG=+50",−5.73 log10M
same,Log10GI50,"[11]; Table IV (LC50, PG=−50), SN12C",>−4.00 log10M
same,Log10TGI,[12]; PG=0,>−4.00 log10M
same,Log10GI50,[12]; PG=+50,−6.06 log10M
same,Log10GI50,"[12]; Table IV (LC50, PG=−50)",>−4.00 log10M
same,Log10TGI,[13]; PG=0,−6.18 log10M
same,Log10GI50,[13]; PG=+50,−6.18 log10M
same,Log10GI50,"[13]; Table IV (LC50, PG=−50)",>−4.00 log10M
same,Log10TGI,[14]; PG=0,>−4.00 log10M
same,Log10GI50,[14]; PG=+50,−5.90 log10M
same,Log10TGI,[15]; PG=0,−4.26 log10M
same,Log10 GI50 or LC50 (per conditions),[15]; PG=+50,−5.85 log10M
same,Log10 GI50 or LC50 (per conditions),"[15]; Table IV (LC50, PG=−50)",>−4.00 log10M
same,Log10TGI,[16]; PG=0,−6.19 log10M
same,Log10GI50,[16]; PG=+50,−6.19 log10M
same,Log10GI50,"[16]; Table IV (LC50, PG=−50)",>−4.00 log10M
same,MG MID of Log10GI50 (Table IV),"[17]; Table IV (LC50), mean over the panel",−4.23 log10M
same,Delta of Log10GI50 (Table IV),"[17]; Table IV (LC50), panel summary",1.70
same,Range of Log10GI50 (Table IV),"[17]; Table IV (LC50), panel summary",1.93
same,"potency in words, compared with artemisinin and paclitaxel","[17]; Tables II, III and IV",in most instances are as potent and in some instances more potent than paclitaxel; also recorded: more potent than artemisinin and equivalent to and in many instances higher in potency than paclitaxel
same,MG MID of Log10GI50,[17]; mean over the panel,−5.73 log10M
same,MG MID of Log10TGI,[17]; mean over the panel,−4.23 log10M
same,Delta of Log10GI50,[17]; panel summary,0.98
same,Delta of Log10TGI,[17]; panel summary,1.70
same,Range of Log10GI50,[17]; panel summary,2.71
same,Range of Log10TGI,[17]; panel summary,1.93
same,drug concentration for cytotoxicity (percentage growth −50),[18],greater than 10^−4 M
same,drug concentration for cytostasis (percentage growth 0),"[18]; MOLT-4, FIGS. 6a-6e",approximately 10^−4 M
same,drug concentration for primary growth inhibition (percentage growth +50),"[18]; MOLT-4, FIGS. 6a-6e",greater than 10^−6 molar
same,Log10GI50,"[18]; MOLT-4, PG=+50",−6.23 log10M
same,Log10TGI,"[18]; MOLT−4, PG=0",−6.23 log10M
same,Log10GI50,"[18]; Table IV (LC50, PG=−50), MOLT−4",>−4.00 log10M
same,Log10TGI,[19]; PG=0,−4.34 log10M
same,Log10GI50,[19]; PG=+50,−5.29 log10M
same,Log10GI50,"[19]; Table IV (LC50, PG=−50)",>−4.00 log10M
